Results: PMC11859928, “Design, Synthesis, and Antiproliferative Activity of Novel Indole/1,2,4-Triazole Hybrids as Tubulin Polymerization Inhibitors” (Pharmaceuticals, 2025)

How the values were obtained:
Test in all cases: NCI one-dose assay
Assay type in all cases: cell-based
OVCAR-4 = details: Homo sapiens, OVCAR-4, Ovarian cancer, read-out: Cell growth inhibition %
SK-OV-3 = details: Homo sapiens, SK-OV-3, Ovarian cancer, read-out: Cell growth inhibition %
RPMI-8226 = details: Homo sapiens, RPMI-8226, Leukemia, read-out: Cell growth inhibition %
SK-MEL-5 = details: Homo sapiens, SK-MEL-5, Melanoma, read-out: Cell growth inhibition %
NCI-H226 = details: Homo sapiens, NCI-H226, Non-small cell lung cancer, read-out: Cell growth inhibition %
CAKI-1 = details: Homo sapiens, CAKI-1, Renal cancer, read-out: Cell growth inhibition %
HCC-2998 = details: Homo sapiens, HCC-2998, Colon cancer, read-out: Cell growth inhibition %
HS 578 T = details: Homo sapiens, Breast cancer, read-out: Cell growth inhibition %
NCI-H460 = details: Homo sapiens, NCI-H460, Non-small cell lung cancer, read-out: Cell growth inhibition %
SNB-75 = details: Homo sapiens, SNB-75, CNS cancer, read-out: Cell growth inhibition %
TK-10 = details: Homo sapiens, TK-10, Renal cancer, read-out: Cell growth inhibition %
OVCAR-8 = details: Homo sapiens, OVCAR-8, Ovarian cancer, read-out: Cell growth inhibition %
HL-60(TB) = details: Homo sapiens, Leukemia, read-out: Cell growth inhibition %
MDA-MB-468 = details: Homo sapiens, MDA-MB-468, Breast cancer, read-out: Cell growth inhibition %
U251 = details: Homo sapiens, U-251, U251, CNS cancer, read-out: Cell growth inhibition %
MALME-3M = details: Homo sapiens, Melanoma, read-out: Cell growth inhibition %
MDA-MB-435 = details: Homo sapiens, MDA-MB-435, Melanoma, read-out: Cell growth inhibition %
UACC-257 = details: Homo sapiens, UACC-257, Melanoma, read-out: Cell growth inhibition %
A549/ATCC = details: Homo sapiens, Non-small cell lung cancer, read-out: Cell growth inhibition %
KM12 = details: Homo sapiens, KM12, Colon cancer, read-out: Cell growth inhibition %
MDA-MB-231/ATCC = details: Homo sapiens, Breast cancer, read-out: Cell growth inhibition %
SF-295 = details: Homo sapiens, SF-295, CNS cancer, read-out: Cell growth inhibition %
IGROV1 = details: Homo sapiens, IGROV-1, IGROV1, Ovarian cancer, read-out: Cell growth inhibition %
SK-MEL-28 = details: Homo sapiens, SK-MEL-28, Melanoma, read-out: Cell growth inhibition %
ACHN = details: Homo sapiens, Renal cancer, read-out: Cell growth inhibition %
SR = details: Homo sapiens, Leukemia, read-out: Cell growth inhibition %
NCI-H522 = details: Homo sapiens, NCI-H522, Non-small cell lung cancer, read-out: Cell growth inhibition %
K-562 = details: Homo sapiens, K562, K-562, Leukemia, read-out: Cell growth inhibition %
HT29 = details: Homo sapiens, HT-29, HT29, Colon cancer, read-out: Cell growth inhibition %
UACC-62 = details: Homo sapiens, UACC-62, Melanoma, read-out: Cell growth inhibition %
M14 = details: Homo sapiens, M14, Melanoma, read-out: Cell growth inhibition %
SF-539 = details: Homo sapiens, SF-539, CNS cancer, read-out: Cell growth inhibition %
MCF7 = details: Homo sapiens, MCF7, Breast cancer, read-out: Cell growth inhibition %
BT-549 = details: Homo sapiens, BT-549, Breast cancer, read-out: Cell growth inhibition %
NCI-H322M = details: Homo sapiens, Non-small cell lung cancer, read-out: Cell growth inhibition %
T-47D = details: Homo sapiens, T47D, Breast cancer, read-out: Cell growth inhibition %

Row | SMILES | inhibition at 10 µM (OVCAR-4) [%] | inhibition at 10 µM (SK-OV-3) [%] | inhibition at 10 µM (RPMI-8226) [%] | inhibition at 10 µM (SK-MEL-5) [%] | inhibition at 10 µM (NCI-H226) [%] | inhibition at 10 µM (CAKI-1) [%] | inhibition at 10 µM (HCC-2998) [%] | inhibition at 10 µM (HS 578 T) [%] | inhibition at 10 µM (NCI-H460) [%] | inhibition at 10 µM (SNB-75) [%] | inhibition at 10 µM (TK-10) [%] | inhibition at 10 µM (OVCAR-8) [%] | inhibition at 10 µM (HL-60(TB)) [%] | inhibition at 10 µM (MDA-MB-468) [%] | inhibition at 10 µM (U251) [%] | inhibition at 10 µM (MALME-3M) [%] | inhibition at 10 µM (MDA-MB-435) [%] | inhibition at 10 µM (UACC-257) [%] | inhibition at 10 µM (A549/ATCC) [%] | inhibition at 10 µM (KM12) [%] | further results
1 | C=CCn1c(SCC(=O)c2ccccc2)nnc1-c1c[nH]c2ccccc12 [Compound 6a, 2-((4-Allyl-5-(1H-indol-3-yl)-4H-1,2,4-triazol-3-yl)thio)-1-phenylethanone] | 2.53 | -20.4 | 13.4 | 3.38 | 12.2 | 16.9 | -10.6 | 2.96 | -6.84 | 3.62 | -43.9 | 4.58 | 4.39 | 12.3 | -7.24 | 13.4 | -5.02 | 2.08 | -0.25 | -11.8 | inhibition at 10 µM (MDA-MB-231/ATCC): 11.2%; inhibition at 10 µM (SF-295): 3.79%; inhibition at 10 µM (IGROV1): 11.6%; inhibition at 10 µM (SK-MEL-28): -5.22%; inhibition at 10 µM (ACHN): 6.19%; inhibition at 10 µM (SR): 23.5%; inhibition at 10 µM (NCI-H522): 2.25%; inhibition at 10 µM (K-562): 7.37%; inhibition at 10 µM (HT29): -11.8%; inhibition at 10 µM (UACC-62): 18.5%; inhibition at 10 µM (M14): 2.35%; inhibition at 10 µM (SF-539): 2.68%; inhibition at 10 µM (MCF7): 2.77%; inhibition at 10 µM (BT-549): -9.39%; inhibition at 10 µM (NCI-H322M): -1.89%; inhibition at 10 µM (T-47D): 5.03%
2 | O=C(CSc1nnc(-c2c[nH]c3ccccc23)n1-c1ccccc1)c1ccc(Cl)cc1 [Compound 6j, 2-((5-(1H-indol-3-yl)-4-phenyl-4H-1,2,4-triazol-3-yl)thio)-1-(4-chlorophenyl) Ethenone] | 85.1 | 27.9 | 16.8 | 21.8 | 82.4 | 35.5 | 21.9 | 66.8 | 39.9 | 45.3 | 16 | 75.5 | 11.1 | 53.6 | 69.9 | 36 | 20.8 | 27.7 | 62.5 | 21.3 | inhibition at 10 µM (MDA-MB-231/ATCC): 48.3%; inhibition at 10 µM (SF-295): 45%; inhibition at 10 µM (IGROV1): 48.6%; inhibition at 10 µM (SK-MEL-28): 31.7%; inhibition at 10 µM (ACHN): 42.5%; inhibition at 10 µM (SR): 7.63%; inhibition at 10 µM (NCI-H522): 33%; inhibition at 10 µM (K-562): 31%; inhibition at 10 µM (HT29): 57.4%; inhibition at 10 µM (UACC-62): 47.2%; inhibition at 10 µM (M14): 19.4%; inhibition at 10 µM (SF-539): 50.5%; inhibition at 10 µM (MCF7): 61.6%; inhibition at 10 µM (BT-549): 30.2%; inhibition at 10 µM (NCI-H322M): 41.3%; inhibition at 10 µM (T-47D): 45.4%
